Experimental findings from patent US20080221017A1, “Pharmaceutical or cosmetic composition and use of a PKC inhibitor with an MMP inhibitor for inhibiting langerhans cell migration” (Laboratoires Expanscience, priority 2000, published 2008) are described below.

The test system of the assay is Langerhans cells (LCs). The assay is described as follows: Migration of LCs through Matrigel in a two-compartment culture chamber (DNSB-sensitized). It counts as cell-based, human. Particulars: for LC migration index: 18 h at 37° C., control cells fixed at 1. The protocol:
Suspensions of epidermal cells were obtained by enzyme treatment (0.05% trypsin, for 18 h at +4° C.) of fragments of normal human skin derived from plastic surgery.
D-sphingosine was diluted in ethanol so as to obtain a stock solution at 5×10^−3 M. The D-sphingosine was used at a concentration of 2.5 μM, the dilution carried out in RPMI containing 1% of bovine serum albumin (RPMI-BSA).
A peptide extract of lupin was used as MMP inhibitor. It is the peptide extract LU105 from Laboratoires Pharmascience.
The cells were pre-incubated at 37° C. for 60 min in the presence of LU105, before adding to the medium the hapten DNSB as sensitizing agent.
As sensitizing agent, DNSB (Sigma Aldrich) was used, the soluble form of DNCB (dinitrochlorobenzene), and was solubilized in RPMI-BSA and used at a concentration of 50 μM.
A two-compartment culture chamber system (Falcon, Becton Dickinson, France) was used. The upper compartment is separated from the lower compartment by a membrane with a porosity of 8 μm, onto which are deposited 50 μg/cm^2 of Matrigel. The membrane is then covered with proteins, forming a film equivalent to a basal membrane (laminin, collagen IV, nidogen, entactin, heparan sulfate proteoglycans). The cells taken up in the RPMI-BSA medium alone or in the presence of the various products are placed in the upper compartment. Normal human fibroblast culture supernatant is added to the lower compartment. After incubation for 18 h at 37° C., the number of living cells which have crossed the Matrigel and are in the lower compartment is counted under a microscope (the LCs are easily identifiable by their dendritic shape). Each assay is carried out in triplicate.

For the compound `O=[N+]([O-])c1ccc(S(=O)(=O)O)c([N+](=O)[O-])c1` [DNSB, reference compound], the LC migration index (cells sensitized with the hapten DNSB (50 μM) alone) was 1.61. Moreover, the “increase of LC migration compared to the normal unstimulated cells (control cells)” value (treatment with the hapten DNSB alone) stood at 61%.
With `CCCCCCCCCCCCC/C=C/[C@@H](O)[C@@H](N)CO` (relative stereo) [D-sphingosine, D-erythro-1,3-dihydroxy-2-amino-4-trans-octadecene], the “effect on the LC migration induced by DNSB (in words)” value (D-sphingosine 2.5 μM) was “significantly inhibits”. Moreover, the LC migration index (DNSB+D-sphingosine (2.5 μM)) is on record as 1.15.
